# Assay results reported in PMC11969024, “Development of chemokine network inhibitors using combinatorial saturation mutagenesis” (Communications Biology, 2025).
# Ends that are not written are not given here.
# How the values were obtained:
# THP1 cells = experiment: Chemokine dose-response, THP1 cell migration; type: cell-based, human; settings: mean of biological replicates (2-7); for Mean pEC80: 3-parameter log-logistic fit, maximum fixed at 100%
# Method: (§1) Cell lines were confirmed mycoplasma free by monthly testing using a MycoAlert^TM kit (LT07-118, Lonza) following the manufacturer’s instructions. THP1 cells: THP1 cells (ECACC 88081201, a human monocyte leukemia cell line[51]) were obtained from ECACC and were cultured in T175 flasks at 0.3-1 × 10^6 cells/mL in Roswell Park Memorial Institute (RPMI) 1640 medium (R0883, Sigma) with 10% FBS (F9665, Sigma) and 5mM L-glutamine (G7513, Sigma), 37 °C, 5% CO2. J:CXCR1 cells: The J:CXCR1 cell line was cultured in the same manner as THP1 cells at 0.15-1 × 10^6 cells per mL[37]. Activated T-cells: T-cells were isolated, activated and expanded as follows. Briefly, density gradient centrifugation using Lymphoprep^TM density gradient medium (07801, […] Technologies) and a SepMate^TM isolation tube (85450, […] Technologies) was used to isolate peripheral blood mononuclear cells from human leukocyte cones. Two rounds of purification using a human CD8 + T-cell isolation kit (480011, BioLegend) were used to isolate CD8 + T-cells from peripheral blood mononuclear cells. Activation of CD8 + T-cells was performed in ImmunoCult^TM-XF T-cell expansion medium (10982, […] Technologies) with an anti-CD3/anti-CD28 T-cell activator at 25 μl/ml (10991, […] Technologies), supplemented with 10 ng/ml recombinant human IL-2 (200-02, PeproTech) with 1% penicillin/streptomycin. T-cells were passaged every 2–3 days in TexMACS medium (130-097-196, Miltenyi Biotec), supplemented with 10 ng/ml human IL-2 (200-05-250, Peprotech) and incubated at 37 °C in 5% CO2. CD8 + T-cells were frozen at day 10-13 after initial activation, at 20×10^6 cell/ml in TexMACS medium supplemented with 10% DMSO (D2650, Sigma) in liquid nitrogen. Activated CD8^+ T-cells were recovered in TexMACs medium at 0.3 × 10^6 cell/ml and incubated at 37 °C in 5% CO2, 24 h prior to use. For buffy coat experiments a mixture of primary human monocytes, granulocytes and lymphocytes was isolated from human buffy coat. Briefly, RBCs were sedimented in HetaSep (07806, […] Technologies) with 1 mL of HetaSep per 5 mL of blood for 15 min at 37 °C. The buffy coat layer was collected from the top and washed in 50 ml MACS buffer (PBS (P4417, Sigma), 0.5% BSA (A7030, Sigma), 0.075% EDTA (E5134, Sigma), pH 7.2), by centrifugation at 2000 g for 10 min at room temperature. The pellet was resuspended in 10 mL of 1x RBC lysis solution (130-094-183, Miltenyi Biotec) and lysed for 10 min at room temperature. The cells were then washed in MACS buffer twice as above. The final pellet was resuspended in 1 mL of MACS buffer per 5 mL of initial blood volume and counted using cell size FSC-H/SSC-H parameters with gate settings previously defined by immunostaining (see below). The leukocytes were then resuspended in assay buffer for cell migration and used within 30 min of isolation.
# (§2) Cell counts were determined using an ATTUNE NxT Flow Cytometer with Cytkick autosampler (ThermoFisher), based on cell size parameters FSC-H/SSC-H, with previously defined gate settings. FSC-H/SSC-H gate settings for primary white blood cells from buffy coats were determined using flow cytometry to establish the granulocyte, monocyte and lymphocyte populations (Supplementary Fig. 13). Briefly, cells were labelled with anti-CD3 (Miltenyi Biotec, 130-113-135) to identify the T cell population, anti-CD14 (Miltenyi Biotec, 130-110-578) to identify the monocyte population, and with anti-CD16 (Miltenyi Biotec, 130-113-951) to identify the granulocyte population. Negative control cells were labelled with anti-human IgG1 (Miltenyi Biotec, 130-113-434). All antibodies were allophycocyanin (APC) conjugated. 100,000 white blood cells were added to Eppendorf tubes and centrifuged at 300 g for 3 min. The supernatant was discarded, and the cells resuspended in 98 µL of MACS buffer (1× PBS, 2 mM EDTA and 0.5% BSA, sterile filtered). 2 µl of antibody was added to the cells. […]
# [1] = lyophilised peptide, data provided by the manufacturer, ref GenScript, cited from earlier work; for Solubility, Water: C-terminal amide
# [2] = test system: panel of 22 biotinylated chemokines; experiment: Saturation (NNK) mutagenesis phage-display selection against biotinylated chemokines, enrichment by NGS; type: binding, human; settings: two-sided Dunnett's test; for log2E compared to parental HD2, CXnC chemokines: 7 CXnC chemokines; for log2E compared to parental HD2, all chemokines: three selection rounds, 22 chemokines; for log2E compared to parental HD2, CC chemokines: 15 CC chemokines
# Text: 81-mer mutant oligonucleotides replacing NNK at each of the 16 peptide encoding residues were designed with the sequence arms 5’-[…], and […]-3’ at respective ends to enable amplification and cloning. Oligonucleotides (Genscript) were individually amplified and cloned into plasmid prSTOP4Nsi (described in[37]). prSTOP4Nsi was amplified using primers (Sigma): […]
# Oligonucleotides were amplified using primers (Sigma): oligo_fwd: 5’-[…] and oligo_rev2: 5’-[…]. The PCR products were cloned into prSTOP4Nsi plasmid using NEB Builder HiFi Assembly (E5520, NEB) following instructions of the manufacturer. The vector pool was used to transform electrocompetent ElectroMAX™ DH5α-E™ cells (11319019, Invitrogen). Plasmid DNA was harvested by MaxiPrep (GeneJet Plasmid Maxiprep Kit (K0491, Thermo Scientific)). DNA was transformed into SS320 phage display electrocompetent cells (60512, Lucigen), following the manufacturer’s protocol. Following electroporation, cells were resuspended in 950 μL recovery media and transferred to 50 mL Falcon tubes. 100 μL 10^11 CFU/mL M13KO7 helper phage (N0315S, NEB) was added, and tubes shaken at 37 °C, 220 RPM, 1 h. 1 mL recovery culture was added to 2YT medium containing +50ug/mL carbenicillin (C9231, Sigma) and 25ug/mL kanamycin (K1377, Sigma), and grown overnight at 37 °C, 220 RPM. Phage was precipitated from culture supernatant by adding 22.5 mL of supernatant to 4.5 mL 20% PEG 8000 (89510, Sigma)/2.5 M NaCl (S9625, Sigma), incubating on ice for 30 min, and centrifuging at 12857 g, 4 °C, 10 min. The phage pellet was resuspended in 1 mL of PBT (PBS (P4417, Sigma), BSA (A7030, Sigma) 0.20%, Tween 20 (P1379, Sigma) 0.05%). Undissolved particulate matter was removed by centrifugation at 15871 g, 4 °C, 10 min. Glycerol (G5516, Sigma, 10% final (v/v) was added, and aliquots stored at −80 °C. A schematic of phage-display library construction is provided in Supplementary Fig. 12.
# Phage display screening was performed as described. Experiments were performed in 96-well plates (Greiner Bio-One, 655180). Biotinylated chemokines or complement C5A (1μg, Almac or Protein Foundry) were incubated overnight at 4 °C with shaking at 250 RPM with 5μl streptavidin-coated magnetic beads (Dynabeads™ M-280 Streptavidin, Invitrogen, 11205D) in 100 μl PBS. Chemokine-bound beads were blocked for two hours in 200μl blocking buffer (PBS (phosphate-buffered saline, Sigma, P4417) + 0.2% BSA (bovine serum albumin, Sigma, A7030) with shaking at 250 RPM. Phage library (100μL, 10^10 CFU/mL) was bound to blocked beads for two hours at room temperature with shaking at 250 RPM. Beads were washed 15 times with PT buffer (PBS + 0.05% Tween 20 (Sigma, P1379)) to remove unbound phage then transferred to a fresh plate. Beads were incubated with 100μL phage-resistant Omnimax E. coli (Invitrogen, A10469) at optical density (OD600) 0.6-0.8, shaken at 37 °C for 30 min. Following this 10 µL M13K07 helper phage (NEB, N0315S, final concentration 10^10 CFU/mL) was added and shaken at 37 °C for 45 min. Cells were transferred to 1 mL 2YT medium (at pH7, MP Biomedicals™, 113012031, supplemented with 150 µg/mL carbenicillin (Sigma, C9231) and 75 µg/mL kanamycin (Sigma, K1377) in a 96-deep well block with V-bottom (Corning, CLS3960) and grown with overnight shaking at 37 °C, 200 RPM. Plates were either centrifuged at 2000g (4 °C, 30 min) or transferred to screw cap tubes and pelleted by centrifugation at 4000 g and 4 °C for 15 min. 540 µL of supernatant was transferred to a new 96-deep well plate, 60 µL of 10×PBT (10×PBS + 2% BSA + 0.5% Tween 20) added and stored at 4 °C for subsequent rounds. Phage display was carried out for three rounds. A schematic of phage-display library screening is provided in Supplementary Fig. 12.
# We amplified inserts from the input library and from the selected phage population directly from phage by PCR using primers: 5’-[…] and 5’-[…] (Life Technologies). […]
# activated T-cells (ATC) = experiment: Chemokine dose-response, activated T-cell (ATC) migration; type: cell-based, human; settings: mean of biological replicates (3-6)
# Method: as §1, §2
# [3] = test system: activated CD8+T-cells (ATC); experiment: Activated T-cell (ATC) migration induced by individual chemokines, inhibition by peptide; type: cell-based, human; settings: peptide 10 uM; chemokines at EC80; Dunnett's test
# Method: as §1, §2
substance,measurement,setting,value
"CCL3: human chemokine, Peprotech 300-08",Mean pEC80,THP1 cells,9.31 [M]
same,Mean pEC50,THP1 cells,9.64 [M]
EEDDYTAYAPLTCYFT-NH2 [HD2],"Solubility, Water",[1],Insoluble
same,"Solubility, DMSO",[1],Soluble
same,"Solubility, PBS",[1],Insoluble
"EEDDYTDYAPLTCYFT [HD2A7D, HD2 point mutant]","log2E compared to parental HD2, CXnC chemokines",[2],significant improvement
same,"log2E compared to parental HD2, all chemokines",[2],significantly improved
DEDDWDDYAPITCYFT-NH2 [HD2CM307],"Solubility, Water",[1],Insoluble
same,"Solubility, DMSO",[1],Insoluble
same,"Solubility, HCOOH",[1],Soluble
same,"Solubility, PBS",[1],Insoluble
"CCL5: human chemokine, Peprotech 300-06",Mean pEC80,THP1 cells,8.36 [M]
same,Mean pEC50,THP1 cells,8.65 [M]
"CCL7: human chemokine, Peprotech 300-17",Mean pEC80,THP1 cells,8.02 [M]
same,Mean pEC50,THP1 cells,8.37 [M]
"TLETDTFYECPDAYAY [HD2SCR, reference compound]","Solubility, Water",[1],Insoluble
same,"Solubility, DMSO",[1],Soluble
same,"Solubility, PBS",[1],Insoluble
"CXCL10: human chemokine, Peprotech 300-12",Mean pEC50,activated T-cells (ATC),7.87 [M]
same,Mean pEC80,activated T-cells (ATC),7.50 [M]
"EEDDYTAYAPITCYFT [HD2L11I, HD2 point mutant]","inhibition of CCL19, CCL21, CXCL9, and CXCL11-induced migration of ATCs compared to parental HD2",[3],significant improvement in inhibition
same,"log2E compared to parental HD2, CC chemokines",[2],significant improvement
same,"log2E compared to parental HD2, all chemokines",[2],significantly improved
"CXCL11: human chemokine, Peprotech 300-46",Mean pEC50,activated T-cells (ATC),8.25 [M]
same,Mean pEC80,activated T-cells (ATC),7.99 [M]
"EEDDYDAYAPLTCYFT [HD2T6D, HD2 point mutant]","log2E compared to parental HD2, CXnC chemokines",[2],significant improvement
same,"log2E compared to parental HD2, CC chemokines",[2],significant improvement
same,"log2E compared to parental HD2, all chemokines",[2],significantly improved
DEDDWDAYAPIWCYFT-NH2 [HD2CM304],"Solubility, Water",[1],Insoluble
same,"Solubility, DMSO",[1],Soluble
same,"Solubility, PBS",[1],Insoluble
"CCL2: human chemokine, Peprotech 300-04",Mean pEC80,THP1 cells,8.35 [M]
same,Mean pEC50,THP1 cells,8.73 [M]
"CXCL12: human chemokine, Peprotech 300-28A",Mean pEC50,activated T-cells (ATC),8.93 [M]
same,Mean pEC80,activated T-cells (ATC),8.54 [M]
DDDDWWDYAPLTCYFD [HD2CM526],"Solubility, Water",[1],Insoluble
same,"Solubility, DMSO",[1],Soluble
same,"Solubility, PBS",[1],Insoluble
"CXCL9: human chemokine, Peprotech 300-26",Mean pEC50,activated T-cells (ATC),7.40 [M]
same,Mean pEC80,activated T-cells (ATC),7.22 [M]
"CCL19: human chemokine, Peprotech 300-29B",Mean pEC50,activated T-cells (ATC),7.91 [M]
same,Mean pEC80,activated T-cells (ATC),7.64 [M]
